Data taken from patent publication US20230373938A1, “BENZOTHIAZOLE MEROTERPENOID COMPOUND AND DERIVATIVE THEREOF, AND PREPARATION METHOD THEREFOR AND USE THEREOF” (THIRD INSTITUTE OF OCEANOGRAPHY, MINISTRY OF NATURAL …, priority 2020, published 2023).
pKd: −log10 of the molar value.

Legend:
RXRalpha-LBD protein = target: T1, RXRalpha-LBD protein (Homo sapiens, UniProt P19793); experiment: Biacore (surface plasmon resonance) binding to RXRalpha-LBD protein; conditions: Biacore T200, CM5 chip
T1 sequence (P19793 227-458 limits assumed): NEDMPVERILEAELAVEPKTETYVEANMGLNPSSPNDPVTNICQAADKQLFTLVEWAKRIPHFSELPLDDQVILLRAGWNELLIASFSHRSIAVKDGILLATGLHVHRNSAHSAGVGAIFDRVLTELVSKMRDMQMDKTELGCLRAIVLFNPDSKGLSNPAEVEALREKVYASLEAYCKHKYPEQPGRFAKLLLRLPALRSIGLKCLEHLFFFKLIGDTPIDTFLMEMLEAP
Procedure: A purified nuclear receptor RXRalpha-LBD protein is coupled with a CM5 chip of Biacore. Then the compounds to be tested are diluted with PBS to prepare solutions at different concentrations before sampling. When samples to be tested flow over the surface of the chip, the binding between biomolecules results in an increase in surface mass of a biosensor, so that refractive index changes. By monitoring angular variation of SPR, kinetic binding and dissociation constants, affinity and specificity of analytes can be automatically obtained. A BiacoreT200 detector can detect interaction between a target protein and the samples to be tested in real time, and binding strength is expressed in response unites (RU) (a change in concentration of binding substances on the chip surface by 1 pg/mm2 is defined as 1 RU). The compounds I to III are screened by Biacore technology, and a binding constant KD of small molecular compounds with RXRalpha-LBD is calculated based on a concentration gradient experiment.

RXRalpha = target: T2, RXRalpha (Homo sapiens, UniProt P19793); experiment: RXRalpha dual-luciferase reporter gene assay (transcriptional activity); format: cell-based; conditions: 293T cells, in combination with agonist 9-cis-RA; dosed 12.5, 25, 50 μM for 12 h
T2 construct: expressed in transfected cells; host or cells: Human embryonic kidney cells (293T)
T2 sequence (P19793 1-462): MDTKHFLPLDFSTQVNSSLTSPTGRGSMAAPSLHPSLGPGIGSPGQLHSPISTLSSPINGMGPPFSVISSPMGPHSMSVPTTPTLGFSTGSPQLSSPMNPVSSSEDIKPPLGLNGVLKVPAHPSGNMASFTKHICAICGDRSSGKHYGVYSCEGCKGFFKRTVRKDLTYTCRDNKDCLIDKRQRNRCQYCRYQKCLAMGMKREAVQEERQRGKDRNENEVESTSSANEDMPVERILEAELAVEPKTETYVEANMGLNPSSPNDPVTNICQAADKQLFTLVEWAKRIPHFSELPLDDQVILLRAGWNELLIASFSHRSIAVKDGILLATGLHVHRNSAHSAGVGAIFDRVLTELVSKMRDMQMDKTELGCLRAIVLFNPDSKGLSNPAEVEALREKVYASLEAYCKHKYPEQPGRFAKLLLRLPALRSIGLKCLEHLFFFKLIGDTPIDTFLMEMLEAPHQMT
From the text: In this embodiment, a dual-luciferase reporter (DLR) assay system consisting of firefly luciferase (FL) reporter gene and Rellina luciferase (RL) reporter gene is used. The RL reporter gene is used as an internal control to normalize measurement results of the FL reporter gene. In cells lacking endogenous RXRalpha and necessary components for downstream signal transduction, a receptor RXRalpha and reporter gene containing RXRalpha response elements are introduced by transfection, so as to simply simulate a transcriptional activation process of a receptor in vivo.
In this embodiment, the following three groups are set: • Negative control group: culture solution of an equal amount, 0.1% DMSO, containing cells, without the compounds as represented by formulas I to III; • Positive control group: culture solution of an equal amount, added with an RXRalpha agonist 9-cis-retinoic acid with or without an antagonist UVI3003 respectively; • Treatment group: cell culture solutions added with an RXRalpha agonist 9-cis-retinoic acid and the compounds as represented by formulas I to III respectively.
Specific steps include: • (1) Cell culture and preparation of test solution • Human embryonic kidney cells (293T) are cultured in a DMEM medium containing 10% fetal bovine serum (FBS) in an incubator containing 5% CO2 at 37° C., and passaged regularly based on growth law of the cells. […]

## C=C1CCC2C(C)(C)CCC[C@]2(C)[C@H]1Cc1cc(O)c(C)c2sc(C(=O)NCC(=O)O)nc12 (stereo partly drawn) [compound I, meroterpenthiazole A]
RXRalpha-LBD protein
  binding mode to RXRalpha protein: fast binding and fast dissociation mode
RXRalpha-LBD protein; concentration gradient, read-out: binding constant KD with RXRalpha-LBD
  pKd: 4.91
RXRalpha
  inhibition of the transcription of RXRalpha by 9-cis-RA: inhibit the transcription of RXRalpha by 9-cis-RA in a concentration-dependent manner
